# Measurements published in US11814364B2, “Pyridine N-oxide derivatives useful as factor XIa inhibitors” (Janssen Pharmaceutica NV, priority 2021, dated 2023).
# Molecular target: human plasma kallikrein (Homo sapiens, UniProt P03952)
# Experiment: Kallikrein inhibition FLINT assay with quenched AMC peptide substrate Z-Gly-Pro-Arg-AMC (end point EP or kinetic KIN reads)
# Format: biochemical
# Details: kinetic reads at 5 min intervals over 30 min; read-out: Kallikrein (KIN) IC50
# Description: A fluorescence intensity (FLINT) based assay was used to monitor inhibition of human plasma kallikrein.
# The Kallikrein FLINT assay was used with the following Z-Gly-Pro-Arg-AMC assay buffer: 50 mM Tris, pH 7.5, 100 mM NaCl, 5 mM CaCl2, 0.1 mg/mL BSA, 0.03% CHAPS. Assay buffer was prepared by mixing all ingredients fresh. 2× Z-Gly-Pro-Arg-AMC peptide substrate was prepared by diluting 10 mM stock into 1× assay buffer for a 100 μM working concentration (50 μM final concentration).
# Test compound(s) were run in an 11-point, 3-fold serial dilution with a final top compound concentration of 1 μM. Final DMSO in assay was 2%. Plasma kallikrein was pre-incubated for 30-minute with compound and then 50 μM substrate was added to initiate the reaction. The assay was run with either end point (EP) reads at 30 min or kinetic (KIN) reads at 5 min intervals over 30 minutes.
# Percent inhibition (IC50) curves were generated per compound tested, and data was analyzed using a 4-parameter logistic fit using GeneData Screener. The relative fluorescence unit (RFU) values were normalized to percent inhibition using the following equation: % inhibition=((HC−LC)−(compound−LC)/(HC−LC))*100
# An 11-point dose response curve for the test compound(s) was generated using GENDATA to determine IC50 value based on the following equation: Y=Bottom+(Top−Bottom)/(1+10^((log IC50−X)*HillSlope))
# Results listed in columns with […] designation were measured using endpoint reads where a single fluorescence reading was measured for each well at a 30 min timepoint.
# human plasma kallikrein, sequence (P03952 391-638 limits assumed): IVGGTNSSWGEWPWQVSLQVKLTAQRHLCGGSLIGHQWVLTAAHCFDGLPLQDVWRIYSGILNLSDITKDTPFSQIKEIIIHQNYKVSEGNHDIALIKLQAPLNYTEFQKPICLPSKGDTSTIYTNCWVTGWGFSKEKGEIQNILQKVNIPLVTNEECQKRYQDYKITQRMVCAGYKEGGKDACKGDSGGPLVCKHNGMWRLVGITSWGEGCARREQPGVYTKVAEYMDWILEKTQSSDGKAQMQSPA
# human plasma kallikrein, sequence (P03952 20-390 partner limits assumed): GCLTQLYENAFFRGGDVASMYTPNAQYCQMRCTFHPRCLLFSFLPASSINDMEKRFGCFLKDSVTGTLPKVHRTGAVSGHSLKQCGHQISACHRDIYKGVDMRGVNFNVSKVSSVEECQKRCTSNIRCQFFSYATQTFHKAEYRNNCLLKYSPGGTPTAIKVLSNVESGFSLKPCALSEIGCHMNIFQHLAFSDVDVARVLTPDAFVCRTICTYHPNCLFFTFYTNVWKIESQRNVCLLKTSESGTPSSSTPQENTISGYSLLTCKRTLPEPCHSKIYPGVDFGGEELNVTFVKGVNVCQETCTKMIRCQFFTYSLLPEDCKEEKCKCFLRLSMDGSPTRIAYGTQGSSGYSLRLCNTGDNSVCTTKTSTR
row,Compound,IC50 [µM]
1,"[O-][n+]1cc(-c2c(-n3cnnn3)ccc(Cl)c2F)ccc1C(Cn1cc(F)c(COC(F)F)n1)n1cc(-c2ccnc(C(F)(F)F)c2)cn1 (single isomer, unassigned) [Example P571]",0.134
2,NC(=O)c1ccc(-c2cnn(C(Cc3ncon3)c3ccc(-c4c(-n5cc(C(F)(F)F)nn5)ccc(Cl)c4F)c[n+]3[O-])c2)cc1F (centres unmarked) [Example P915],0.0202
3,O=C(O)C1CCN(C(=O)C2CC2CC(c2ccc(-c3c(-n4cnnn4)ccc(Cl)c3F)c[n+]2[O-])n2cc(-c3ccccc3)cn2)CC1 (centres unmarked) [Example P215],0.755
4,CCOC(=O)C1CC1CC(c1ccc(-c2cc(Cl)ccc2-n2cnnn2)c[n+]1[O-])n1cc(-c2ccc(C(=O)O)cc2)cn1 (centres unmarked) [Example P67],0.362
5,COC(=O)Nc1ccc(-c2cnn(C(Cc3ccc(Cl)cc3)c3ccc(-c4cc(Cl)ccc4-n4cnnn4)c[n+]3[O-])c2)cc1 (centres unmarked) [Example P92],0.0455
6,O=C(O)c1ccc(-c2cnn(C(Cc3ccc(Oc4ccccc4)cc3)c3ccc(-c4cc(Cl)ccc4-n4cnnn4)c[n+]3[O-])c2)cc1 (centres unmarked) [Example P147],0.0122
7,CC(C)(C)OCC[C@H](c1ccc(-c2c(-n3cnnn3)ccc(Cl)c2F)c[n+]1[O-])n1cc(-c2ccnn2C(F)F)cn1 [Example P640],0.179
8,O=C(O)c1ccc(-c2cnn([C@H](CCOC(F)F)c3ccc(-c4c(-n5cc(C(F)(F)F)nn5)ccc(Cl)c4F)c[n+]3[O-])c2)cc1 [Example P858],0.0116
9,CN(C)C(=O)N(C)CC(c1ccc(-c2c(-n3cnnn3)ccc(Cl)c2F)c[n+]1[O-])n1cc(-c2ccnc(C(F)(F)F)c2)cn1 (centres unmarked) [Example P437],0.113
10,COCCOC(=O)Nc1ccc(-c2cnn(C(CC3CC3)c3ccc(-c4c(-n5cnnn5)ccc(Cl)c4F)c[n+]3[O-])c2)cc1 (centres unmarked) [Example P141],0.0728
11,"[O-][n+]1cc(-c2c(-n3cnnn3)ccc(Cl)c2F)ccc1C(Cn1cccn1)n1cc(-c2ccnc(C(F)(F)F)c2)cn1 (single isomer, unassigned) [Example P514]",0.0729
12,[2H]C([2H])([2H])n1nccc1-c1cnn([C@@H](CCOC(F)F)c2ccc(-c3c(-n4cnnn4)ccc(Cl)c3F)c[n+]2[O-])c1 [Example P557],0.21
13,CN(CC(c1ccc(-c2c(-n3cnnn3)ccc(Cl)c2F)c[n+]1[O-])n1cc(-c2ccnc(F)c2)cn1)C(=O)C(C)(C)C (centres unmarked) [Example P426],0.0536
14,O=C(Cc1cnn(CC(c2ccc(-c3c(-n4cnnn4)ccc(Cl)c3F)c[n+]2[O-])n2cc(-c3ccnc(C(F)(F)F)c3)cn2)c1)N1CCCCC1 (centres unmarked) [Example P473],0.104
15,"[O-][n+]1cc(-c2c(-n3cnnn3)ccc(Cl)c2F)ccc1C(Cc1ccc(F)cc1)n1cc(-c2c(Cl)nnn2C(F)F)cn1 (single isomer, unassigned) [Example P589]",0.52
16,"O=C(O)c1ccc(-c2cnn(C(Cc3ccn(C(F)F)n3)c3ccc(-c4c(C(F)F)ccc(Cl)c4F)c[n+]3[O-])c2)cc1 (single isomer, unassigned) [Example Q71]",0.0049
17,O=C1CCCN1CC(c1ccc(-c2c(-n3cnnn3)ccc(Cl)c2F)c[n+]1[O-])n1cc(-c2ccncc2)cn1 (centres unmarked) [Example P242],0.0039

row,Compound,IC50 [µM]
1,"COC(=O)Nc1ccc(-c2cnn(C(CCOC(C)C)c3ccc(-c4c(-n5cnnn5)ccc(Cl)c4F)c[n+]3[O-])c2)cc1 (single isomer, unassigned) [Example P192]",0.024
2,"[O-][n+]1ccc(-c2cnn(C(Cc3ccc(F)cc3)c3ccc(-c4c(OC(F)F)ccc(Cl)c4F)c[n+]3[O-])c2)cc1 (single isomer, unassigned) [Example Q17]",7.82
3,"[O-][n+]1ccc(-c2cnn(C(Cn3cc(F)cn3)c3ccc(-c4c(-n5cnnn5)ccc(Cl)c4F)c[n+]3[O-])c2)cc1C(F)F (single isomer, unassigned) [Example P406]",0.0276
4,Cn1cc(-c2cnn(C(CC3CC3)c3ccc(-c4c(-n5cnnn5)ccc(Cl)c4F)c[n+]3[O-])c2)ccc1=O (centres unmarked) [Example P216],0.296
5,COCC[C@H](c1ccc(-c2c(-n3cnnn3)ccc(Cl)c2F)c[n+]1[O-])n1cc(-c2cnc(C(F)F)s2)cn1 [Example P531],0.174
6,"NC(=O)c1ccc(-c2cnn(C(Cc3ccn(C(F)F)n3)c3ccc(-c4c(C(F)F)ccc(Cl)c4F)c[n+]3[O-])c2)cc1F (single isomer, unassigned) [Example Q66]",0.477
7,"NC(=O)c1ccc(-c2cnn(C(Cc3nccs3)c3ccc(-c4c(-n5cc(C(F)(F)F)nn5)ccc(Cl)c4F)c[n+]3[O-])c2)cc1F (single isomer, unassigned) [Example P943]",0.0062
8,Cc1cc(-c2cnn(C(Cn3cc(F)cn3)c3ccc(-c4c(-n5cnnn5)ccc(Cl)c4F)c[n+]3[O-])c2)cc[n+]1[O-] (centres unmarked) [Example P472],0.0407
9,COCC[C@H](c1ccc(-c2c(-n3cnnn3)ccc(Cl)c2F)c[n+]1[O-])n1cc(-c2ccn(C(F)F)n2)cn1 [Example P560],0.102
10,Cn1cc(CC(c2ccc(-c3c(-n4cnnn4)ccc(Cl)c3F)c[n+]2[O-])n2cc(-c3ccnc(C(F)(F)F)c3)cn2)nn1 (centres unmarked) [Example P695],0.0437
11,[O-][n+]1cc(-c2c(-n3cnnn3)ccc(Cl)c2F)ccc1C(CC1CC1)n1cc(-c2ccncc2)cn1 (centres unmarked) [Example P187],0.124
12,Cn1nnc(F)c1-c1cnn([C@H](CCOC(F)F)c2ccc(-c3c(-n4cc(C(F)(F)F)nn4)ccc(Cl)c3F)c[n+]2[O-])c1 [Example P754],0.0743
13,[O-][n+]1cc(-c2c(-n3cnnn3)ccc(Cl)c2F)ccc1C(CC1CC1)n1cc(-c2ccnn2C(F)F)cn1 (centres unmarked) [Example P542],0.302
14,Cn1cc2cc(-c3cnn(C(CC4CC4)c4ccc(-c5c(-n6cnnn6)ccc(Cl)c5F)c[n+]4[O-])c3)ccc2n1 (centres unmarked) [Example P326],0.0479
15,[O-][n+]1cc(-c2c(-n3cnnn3)ccc(Cl)c2F)ccc1C(Cn1cc(F)cn1)n1cc(-c2ccnc(C(F)(F)F)n2)cn1 (centres unmarked) [Example P469],0.0362
16,"NC(=O)c1ccnn1CC(c1ccc(-c2c(C(F)F)ccc(Cl)c2F)c[n+]1[O-])n1cc(-c2ccnc(C(F)(F)F)c2)cn1 (single isomer, unassigned) [Example Q28]",0.0946

# The remaining compounds from weak to strong by IC50, led by results:
row,IC50 [µM],Compound
1,0.417,[2H]C([2H])(C[C@@H](c1ccc(-c2c(-n3cnnn3)ccc(Cl)c2F)c[n+]1[O-])n1cc(-c2cn(C)nc2Cl)cn1)OC(F)F [Example P849]
2,0.326,Cn1ncnc1-c1cnn(C(CC2CNCCO2)c2ccc(-c3c(-n4cc(C(F)(F)F)nn4)ccc(Cl)c3F)c[n+]2[O-])c1 (centres unmarked) [Example P934]
3,0.271,COC(=O)Nc1ccc(-c2cnn(C(COC(C)C)c3ccc(-c4c(-n5cnnn5)ccc(Cl)c4F)c[n+]3[O-])c2)cc1 (centres unmarked) [Example P229]
4,0.236,Cn1ncc(F)c1-c1cnn(C(CC2CC2)c2ccc(-c3c(-n4cnnn4)ccc(Cl)c3F)c[n+]2[O-])c1 (centres unmarked) [Example P478]
5,0.179,COC(=O)Nc1ccc(-c2cnn(C(CC(C)C)c3ccc(-c4c(-n5cnnn5)ccc(Cl)c4F)c[n+]3[O-])c2)cc1 (centres unmarked) [Example P179]
6,0.123,NC(=O)c1ccc(-c2cnn(C(CC3CC3)c3ccc(-c4c(-n5cc(C(F)(F)F)nn5)ccc(Cl)c4F)c[n+]3[O-])c2)s1 (centres unmarked) [Example P904]
7,0.0529,Cc1cc(C(N)=O)sc1-c1cnn(C(CC2CC2)c2ccc(-c3c(-n4cnnn4)ccc(Cl)c3F)c[n+]2[O-])c1 (centres unmarked) [Example P960]
8,0.0388,"CN(CC(c1ccc(-c2c(-n3cnnn3)ccc(Cl)c2F)c[n+]1[O-])n1cc(-c2ccnc(F)c2)cn1)C(=O)OC(C)(C)C (single isomer, unassigned) [Example P354]"
9,0.0307,O=C(O)c1ccc(-c2cnn(C(CCOC(F)F)c3ccc(-c4c(-n5cc(C(F)(F)F)nn5)ccc(Cl)c4F)c[n+]3[O-])c2)cc1 (centres unmarked) [Example P838]
10,0.0285,COC(=O)Nc1ccc(-c2cnn(C(Cc3ccccc3OC)c3ccc(-c4c(-n5cnnn5)ccc(Cl)c4F)c[n+]3[O-])c2)cc1 (centres unmarked) [Example P164]
11,0.0216,"CCC(c1ccc(-c2c(-n3cnnn3)ccc(Cl)c2F)c[n+]1[O-])n1cc(-c2ccc(C(N)=O)c(F)c2)cn1 (single isomer, unassigned) [Example P949]"
12,0.0134,Cn1nccc1-c1cnn(C(Cn2cc(F)cn2)c2ccc(-c3c(-n4cnnn4)ccc(Cl)c3F)c[n+]2[O-])c1 (centres unmarked) [Example P503]
13,0.0118,O=C(O)c1ccc(-c2cnn(C(Cc3ncco3)c3ccc(-c4c(-n5cc(C(F)(F)F)nn5)ccc(Cl)c4F)c[n+]3[O-])c2)cc1F (centres unmarked) [Example P912]
14,0.0078,O=C(O)c1ccc(-c2cnn(C(Cc3ccc(-c4ccccc4)cc3)c3ccc(-c4cc(Cl)ccc4-n4cnnn4)c[n+]3[O-])c2)cc1 (centres unmarked) [Example P62]
15,0.0071,O=C1CCCN1CC(c1ccc(-c2c(-n3cnnn3)ccc(Cl)c2F)c[n+]1[O-])n1cc(-c2ccnc(F)c2)cn1 (centres unmarked) [Example P257]
16,0.0051,"[O-][n+]1ccc(-c2cnn(C(Cc3ccc(F)cc3)c3ccc(-c4c(C(F)F)ccc(Cl)c4F)c[n+]3[O-])c2)cc1 (single isomer, unassigned) [Example Q18]"
17,0.0041,NC(=O)COc1ccc(CC(c2ccc(-c3cc(Cl)ccc3-n3cnnn3)c[n+]2[O-])n2cc(-c3ccc(C(=O)O)cc3)cn2)cc1 (centres unmarked) [Example P138]
